# Source: patent US9980943B2, “Methods of treating muscular dystrophy” (BOARD OF REGENTS OF THE NEVADA SYSTEM OF HIGHER EDUCATION, …, priority 2013, dated 2018)
# Key:
# Assay type in all cases: cell-based, mouse
# [1] = system: β-galactosidase in CMV-LacZ C2C12 myoblasts; assay: CMV-LacZ secondary screen in C2C12 myoblasts (β-Gal stabilizing assay); conditions: for CMV-LACZ in Myoblasts (β-galactosidase activity relative to DMSO): CMV-LacZ C2C12 myoblasts; for CMV-LACZ in Myoblasts, value relative to DMSO: SU9516 analogs, C2C12 CMV-LacZ, N=2
# Method in brief: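 First, C2C12 myoblasts were transfected with a linearized CMV-LACZ vector and clonal lines selected by FDG β-gal assay. Then cells were exposed to compounds at 0.5, 1, 5, 10, 20 and 40 μM in 96-well format, two replicates each, and β-gal measured.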
# [2] = system: α7 integrin (LacZ reporter in α7βgal+/− myoblasts); assay: Myoblast α7+/LacZ integrin FDG assay (Burkin assay in myoblasts, 96-well); conditions: 96-well; for Burkin Assay in Myoblasts, signal relative to DMSO: α7+/LacZ myoblasts; for Burkin Assay in Myoblasts, value relative to DMSO: SU9516 analogs, N=3-6
# [3] = system: β-galactosidase in CMV-LacZ C2C12 myotubes; assay: CMV-LacZ secondary screen in C2C12 myotubes (β-Gal stabilizing assay); conditions: for CMV-LACZ in Myotubes, signal relative to DMSO: C2C12 CMV-LacZ myotubes, fold relative to DMSO; for CMV-LACZ in Myotubes, value relative to DMSO: SU9516 analogs, C2C12 CMV-LacZ, N=2
# Method in brief: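 A secondary screen identifies compounds that stabilize β-gal independently of the native promoter, using CMV-LacZ C2C12 cells. Curves span 0.5–40 μM at six levels, in duplicate.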
# [4] = system: α7 integrin (LacZ reporter in α7+/LacZ myotubes); assay: Myotube α7 integrin FDG assay (Burkin assay in myotubes, 96-well); conditions: for Burkin Assay in Myotubes, value relative to DMSO: SU9516 analogs, 96-well, N=3-6
structure (smiles),measurement,setting,value
Fc1ccc(-c2ccnc3nc(N4CCN(c5ccccc5)CC4)nn23)cc1 [MLS000546316-01],CMV-LACZ in Myoblasts (β-galactosidase activity relative to DMSO),[1]; 0.5 uM,1.0623
same,CMV-LACZ in Myoblasts (β-galactosidase activity relative to DMSO),[1]; 1 uM,1.1373
same,CMV-LACZ in Myoblasts (β-galactosidase activity relative to DMSO),[1]; 5 uM,0.8090
same,CMV-LACZ in Myoblasts (β-galactosidase activity relative to DMSO),[1]; 10 uM,1.2440
same,CMV-LACZ in Myoblasts (β-galactosidase activity relative to DMSO),[1]; 20 uM,1.3463
same,CMV-LACZ in Myoblasts (β-galactosidase activity relative to DMSO),[1]; 40 uM,1.5049
same,"Burkin Assay in Myoblasts, signal relative to DMSO",[2]; 0.5 uM,1.159
same,"Burkin Assay in Myoblasts, signal relative to DMSO",[2]; 1 uM,1.223
same,"Burkin Assay in Myoblasts, signal relative to DMSO",[2]; 5 uM,1.164
same,"Burkin Assay in Myoblasts, signal relative to DMSO",[2]; 10 uM,1.123
same,"Burkin Assay in Myoblasts, signal relative to DMSO",[2]; 20 uM,1.026
same,"Burkin Assay in Myoblasts, signal relative to DMSO",[2]; 40 uM,1.027
same,"CMV-LACZ in Myotubes, signal relative to DMSO",[3]; 0.5 uM,1.2590
same,"CMV-LACZ in Myotubes, signal relative to DMSO",[3]; 1 uM,1.0019
same,"CMV-LACZ in Myotubes, signal relative to DMSO",[3]; 5 uM,1.0040
same,"CMV-LACZ in Myotubes, signal relative to DMSO",[3]; 10 uM,1.0825
same,"CMV-LACZ in Myotubes, signal relative to DMSO",[3]; 20 uM,1.0190
same,"CMV-LACZ in Myotubes, signal relative to DMSO",[3]; 40 uM,1.2640
same,"Burkin Assay in Myotubes, α7 integrin LacZ reporter signal relative to DMSO",[4]; 0.5 uM,1.137
same,"Burkin Assay in Myotubes, α7 integrin LacZ reporter signal relative to DMSO",[4]; 1 uM,1.174
same,"Burkin Assay in Myotubes, α7 integrin LacZ reporter signal relative to DMSO",[4]; 5 uM,1.066
same,"Burkin Assay in Myotubes, α7 integrin LacZ reporter signal relative to DMSO",[4]; 10 uM,1.099
same,"Burkin Assay in Myotubes, α7 integrin LacZ reporter signal relative to DMSO",[4]; 20 uM,0.8571
same,"Burkin Assay in Myotubes, α7 integrin LacZ reporter signal relative to DMSO",[4]; 40 uM,1.176
O=C1Nc2ccccc2/C1=C\c1cccn1-c1ccc(OC(F)(F)F)cc1 [MLS000546982-01],"CMV-LACZ in Myoblasts, value relative to DMSO",[1]; 0.5 uM,1.0877
same,"CMV-LACZ in Myoblasts, value relative to DMSO",[1]; 1 uM,1.2640
same,"CMV-LACZ in Myoblasts, value relative to DMSO",[1]; 5 uM,0.9273
same,"CMV-LACZ in Myoblasts, value relative to DMSO",[1]; 10 uM,1.0785
same,"CMV-LACZ in Myoblasts, value relative to DMSO",[1]; 20 uM,0.9512
same,"CMV-LACZ in Myoblasts, value relative to DMSO",[1]; 40 uM,1.3937
same,"Burkin Assay in Myoblasts, value relative to DMSO",[2]; 0.5 uM,0.8799
same,"Burkin Assay in Myoblasts, value relative to DMSO",[2]; 1 uM,1.155
same,"Burkin Assay in Myoblasts, value relative to DMSO",[2]; 5 uM,1.272
same,"Burkin Assay in Myoblasts, value relative to DMSO",[2]; 10 uM,1.078
same,"Burkin Assay in Myoblasts, value relative to DMSO",[2]; 20 uM,1.053
same,"Burkin Assay in Myoblasts, value relative to DMSO",[2]; 40 uM,0.8883
same,"CMV-LACZ in Myotubes, value relative to DMSO",[3]; 0.5 uM,1.0438
same,"CMV-LACZ in Myotubes, value relative to DMSO",[3]; 1 uM,0.8467
same,"CMV-LACZ in Myotubes, value relative to DMSO",[3]; 5 uM,1.0159
same,"CMV-LACZ in Myotubes, value relative to DMSO",[3]; 10 uM,1.1265
same,"CMV-LACZ in Myotubes, value relative to DMSO",[3]; 20 uM,1.0160
same,"CMV-LACZ in Myotubes, value relative to DMSO",[3]; 40 uM,1.3290
same,"Burkin Assay in Myotubes, value relative to DMSO",[4]; 0.5 uM,1.048
same,"Burkin Assay in Myotubes, value relative to DMSO",[4]; 1 uM,1.038
same,"Burkin Assay in Myotubes, value relative to DMSO",[4]; 5 uM,1.145
same,"Burkin Assay in Myotubes, value relative to DMSO",[4]; 10 uM,0.9962
same,"Burkin Assay in Myotubes, value relative to DMSO",[4]; 20 uM,0.8556
same,"Burkin Assay in Myotubes, value relative to DMSO",[4]; 40 uM,0.7111
CCO/C(C)=C1\C(=O)Nc2ccccc21 [MLS000554109-01],"CMV-LACZ in Myoblasts, value relative to DMSO",[1]; 0.5 uM,1.1083
same,"CMV-LACZ in Myoblasts, value relative to DMSO",[1]; 1 uM,1.1863
same,"CMV-LACZ in Myoblasts, value relative to DMSO",[1]; 5 uM,0.9003
same,"CMV-LACZ in Myoblasts, value relative to DMSO",[1]; 10 uM,0.9457
same,"CMV-LACZ in Myoblasts, value relative to DMSO",[1]; 20 uM,0.9853
same,"CMV-LACZ in Myoblasts, value relative to DMSO",[1]; 40 uM,0.9650
same,"Burkin Assay in Myoblasts, value relative to DMSO",[2]; 0.5 uM,0.9929
same,"Burkin Assay in Myoblasts, value relative to DMSO",[2]; 1 uM,1.049
same,"Burkin Assay in Myoblasts, value relative to DMSO",[2]; 5 uM,1.067
same,"Burkin Assay in Myoblasts, value relative to DMSO",[2]; 10 uM,1.095
same,"Burkin Assay in Myoblasts, value relative to DMSO",[2]; 20 uM,0.9611
same,"Burkin Assay in Myoblasts, value relative to DMSO",[2]; 40 uM,0.8937
same,"CMV-LACZ in Myotubes, value relative to DMSO",[3]; 0.5 uM,1.2682
same,"CMV-LACZ in Myotubes, value relative to DMSO",[3]; 1 uM,0.9491
same,"CMV-LACZ in Myotubes, value relative to DMSO",[3]; 5 uM,1.1559
same,"CMV-LACZ in Myotubes, value relative to DMSO",[3]; 10 uM,1.1355
same,"CMV-LACZ in Myotubes, value relative to DMSO",[3]; 20 uM,0.9100
same,"CMV-LACZ in Myotubes, value relative to DMSO",[3]; 40 uM,0.9950
same,"Burkin Assay in Myotubes, value relative to DMSO",[4]; 0.5 uM,0.8839
same,"Burkin Assay in Myotubes, value relative to DMSO",[4]; 1 uM,1.054
same,"Burkin Assay in Myotubes, value relative to DMSO",[4]; 5 uM,0.9611
same,"Burkin Assay in Myotubes, value relative to DMSO",[4]; 10 uM,0.9874
same,"Burkin Assay in Myotubes, value relative to DMSO",[4]; 20 uM,0.8426
same,"Burkin Assay in Myotubes, value relative to DMSO",[4]; 40 uM,1.048
c1ccc(-c2cc(-c3nc4ccccc4[nH]3)c3ccccc3n2)cc1 [MLS000554416-01],CMV-LACZ in Myoblasts (β-galactosidase activity relative to DMSO),[1]; 0.5 uM,1.1310
same,CMV-LACZ in Myoblasts (β-galactosidase activity relative to DMSO),[1]; 1 uM,1.3983
same,CMV-LACZ in Myoblasts (β-galactosidase activity relative to DMSO),[1]; 5 uM,0.8594
same,CMV-LACZ in Myoblasts (β-galactosidase activity relative to DMSO),[1]; 10 uM,1.1123
same,CMV-LACZ in Myoblasts (β-galactosidase activity relative to DMSO),[1]; 20 uM,1.1077
same,CMV-LACZ in Myoblasts (β-galactosidase activity relative to DMSO),[1]; 40 uM,0.8611
same,"Burkin Assay in Myoblasts, signal relative to DMSO",[2]; 0.5 uM,1.211
same,"Burkin Assay in Myoblasts, signal relative to DMSO",[2]; 1 uM,1.0679
same,"Burkin Assay in Myoblasts, signal relative to DMSO",[2]; 5 uM,0.9915
same,"Burkin Assay in Myoblasts, signal relative to DMSO",[2]; 10 uM,0.9591
same,"Burkin Assay in Myoblasts, signal relative to DMSO",[2]; 20 uM,1.087
same,"Burkin Assay in Myoblasts, signal relative to DMSO",[2]; 40 uM,0.8248
same,"CMV-LACZ in Myotubes, signal relative to DMSO",[3]; 0.5 uM,1.0019
same,"CMV-LACZ in Myotubes, signal relative to DMSO",[3]; 1 uM,0.9629
same,"CMV-LACZ in Myotubes, signal relative to DMSO",[3]; 5 uM,0.8969
same,"CMV-LACZ in Myotubes, signal relative to DMSO",[3]; 10 uM,0.9798
same,"CMV-LACZ in Myotubes, signal relative to DMSO",[3]; 20 uM,0.8760
same,"CMV-LACZ in Myotubes, signal relative to DMSO",[3]; 40 uM,0.7060
same,"Burkin Assay in Myotubes, α7 integrin LacZ reporter signal relative to DMSO",[4]; 0.5 uM,0.9146
same,"Burkin Assay in Myotubes, α7 integrin LacZ reporter signal relative to DMSO",[4]; 1 uM,0.9261
same,"Burkin Assay in Myotubes, α7 integrin LacZ reporter signal relative to DMSO",[4]; 5 uM,0.8366
same,"Burkin Assay in Myotubes, α7 integrin LacZ reporter signal relative to DMSO",[4]; 10 uM,0.9334
same,"Burkin Assay in Myotubes, α7 integrin LacZ reporter signal relative to DMSO",[4]; 20 uM,0.6816
same,"Burkin Assay in Myotubes, α7 integrin LacZ reporter signal relative to DMSO",[4]; 40 uM,0.4915
O=C(Nc1cc(-c2nc3ccccc3s2)ccc1Cl)c1ccc2c(c1)OCO2 [MLS000560266-01],CMV-LACZ in Myoblasts (β-galactosidase activity relative to DMSO),[1]; 0.5 uM,0.9030
same,CMV-LACZ in Myoblasts (β-galactosidase activity relative to DMSO),[1]; 1 uM,0.8123
same,CMV-LACZ in Myoblasts (β-galactosidase activity relative to DMSO),[1]; 5 uM,0.9405
same,CMV-LACZ in Myoblasts (β-galactosidase activity relative to DMSO),[1]; 10 uM,0.9991
same,CMV-LACZ in Myoblasts (β-galactosidase activity relative to DMSO),[1]; 20 uM,1.1095
same,CMV-LACZ in Myoblasts (β-galactosidase activity relative to DMSO),[1]; 40 uM,1.0484
same,"Burkin Assay in Myoblasts, signal relative to DMSO",[2]; 0.5 uM,0.953
same,"Burkin Assay in Myoblasts, signal relative to DMSO",[2]; 1 uM,0.8556
same,"Burkin Assay in Myoblasts, signal relative to DMSO",[2]; 5 uM,1.026
same,"Burkin Assay in Myoblasts, signal relative to DMSO",[2]; 10 uM,1.13
same,"Burkin Assay in Myoblasts, signal relative to DMSO",[2]; 20 uM,0.8321
same,"Burkin Assay in Myoblasts, signal relative to DMSO",[2]; 40 uM,0.5589
same,"CMV-LACZ in Myotubes, signal relative to DMSO",[3]; 0.5 uM,0.9724
same,"CMV-LACZ in Myotubes, signal relative to DMSO",[3]; 1 uM,1.0000
same,"CMV-LACZ in Myotubes, signal relative to DMSO",[3]; 5 uM,1.0253
same,"CMV-LACZ in Myotubes, signal relative to DMSO",[3]; 10 uM,1.0224
same,"CMV-LACZ in Myotubes, signal relative to DMSO",[3]; 20 uM,1.0520
same,"CMV-LACZ in Myotubes, signal relative to DMSO",[3]; 40 uM,0.9470
same,"Burkin Assay in Myotubes, α7 integrin LacZ reporter signal relative to DMSO",[4]; 0.5 uM,0.9891
same,"Burkin Assay in Myotubes, α7 integrin LacZ reporter signal relative to DMSO",[4]; 1 uM,0.8824
same,"Burkin Assay in Myotubes, α7 integrin LacZ reporter signal relative to DMSO",[4]; 5 uM,1.037
same,"Burkin Assay in Myotubes, α7 integrin LacZ reporter signal relative to DMSO",[4]; 10 uM,1.185
same,"Burkin Assay in Myotubes, α7 integrin LacZ reporter signal relative to DMSO",[4]; 20 uM,0.6706
same,"Burkin Assay in Myotubes, α7 integrin LacZ reporter signal relative to DMSO",[4]; 40 uM,0.6059
